The text below walks through data of US20250282799A1, “SUBSTITUTED PYRIDO[4,3-d]PYRIMIDINES AS KRAS MODULATORS” (Alterome Therapeutics, Inc., priority 2023, published 2025).

The assay deals with KRAS G12V dependent lung adenocarcinoma cell line, NCI-H441. Description: Cellular pERK (Thr202/Tyr204) FRET/HTRF assay. The class given is cell-based. To be noted: Homo sapiens, NCI-H441, cellular pERK (Thr202/Tyr204) HTRF, NCI-H441 cells. The method, boiled down: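 NCI-H441 cells (KRAS G12V) plated overnight at 37 °C, then exposed to compounds for 1 hr at 37 °C, 5% CO2; DMSO as negative control. Lysates read by Eu-cryptate/d2 sandwich FRET (665 nm) for ERK1/2 phosphorylated at Thr202/Tyr204; IC50 from curve fit.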
In general terms: Time-resolved FRET reads energy transfer from a long-lived donor to a nearby acceptor.
The IC50 is the concentration at which inhibition is half-maximal. A higher IC50 goes with weaker potency in that assay. In the case of `[2H]C([2H])(F)Oc1c(F)ccc2cccc(-c3ncc4c(N5CCCC[C@H]6[C@H](F)[C@H]65)nc(OC[C@]56C/C(=C/F)CN5CCC65CC5)nc4c3F)c12` [Example 408, (R,Z)-7a′-(((8-fluoro-7-(7-fluoro-8-(fluoromethoxy-d2)naphthalen-1-yl)-4-((1S,7R,8S)-8-fluoro-2-azabicyclo[5.1.0]octan-2-yl)pyrido[4,3-d]pyrimidin-2-yl)oxy)methyl)-6′-(fluoromethylene)hexahydrospiro [cyclopropane-1,1′-pyrrolizine]], the concentration for half-maximal inhibition (IC50) was under 50 nM.

In turn, `[2H]C([2H])(F)Oc1c(F)ccc2cc(N)cc(-c3ncc4c(N5CCCC[C@H]6[C@H](F)[C@H]65)nc(OC[C@]56C/C(=C/F)CN5CCC65CC5)nc4c3F)c12` [Example 409, 6-fluoro-4-(8-fluoro-4-((1S,7R,8S)-8-fluoro-2-azabicyclo[5.1.0]octan-2-yl)-2-(((R,Z)-6′-(fluoromethylene)tetrahydrospiro [cyclopropane-1,1′-pyrrolizin]-7a′(5′H)-yl)methoxy)pyrido[4,3-d]pyrimidin-7-yl)-5-(fluoromethoxy-d2)naphthalen-2-amine] came in with an IC50 of under 50 nM.

Molecule `[2H]C([2H])(Oc1nc(N2CCOC[C@H]3[C@H](F)[C@H]32)c2cnc(-c3cc(N)cc4ccc(C)c(C#C)c34)c(F)c2n1)[C@@]12CCCN1[C@H](C)[C@H](F)C2` [Example 410, 5-ethynyl-4-(8-fluoro-2-(((2R,3R,7aS)-2-fluoro-3-methyltetrahydro-1H-pyrrolizin-7a(5H)-yl)methoxy-d2)-4-((1S,7S,8S)-8-fluoro-5-oxa-2-azabicyclo[5.1.0]octan-2-yl)pyrido[4,3-d]pyrimidin-7-yl)-6-methylnaphthalen-2-amine] had an IC50 of under 50 nM. The molecule `Nc1cc(Cl)c(C(F)(F)F)c(-c2ncc3c(N4CCCC[C@H]5[C@H](F)[C@H]54)nc(OC[C@]45CC(=C(F)F)CN4CCC54CC4)nc3c2F)c1` [Example 411, 3-chloro-5-(2-(((R)-6′-(difluoromethylene)tetrahydrospiro [cyclopropane-1,1′-pyrrolizin]-7a′(5′H)-yl)methoxy)-8-fluoro-4-((1S,7R,8S)-8-fluoro-2-azabicyclo[5.1.0]octan-2-yl)pyrido[4,3-d]pyrimidin-7-yl)-4-(trifluoromethyl)aniline] registered an IC50 of 500 to 10000 nM. Then `Cc1c(F)c(N)cc(-c2ncc3c(N4CCCC[C@H]5[C@H](F)[C@H]54)nc(OC[C@]45CC(=C(F)F)CN4CCC54CC4)nc3c2F)c1C(F)(F)F` [Example 412, 5-(2-(((R)-6′-(difluoromethylene)tetrahydrospiro [cyclopropane-1,1′-pyrrolizin]-7a′(5′H)-yl)methoxy)-8-fluoro-4-((1S,7R,8S)-8-fluoro-2-azabicyclo[5.1.0]octan-2-yl)pyrido[4,3-d]pyrimidin-7-yl)-2-fluoro-3-methyl-4-(trifluoromethyl)aniline], with 500 to 10000 nM; and `[2H]C([2H])(F)Oc1c(F)ccc2cccc(-c3ncc4c(N5CCCC[C@H]6[C@H](F)[C@H]65)nc(OC[C@]56CC(=C(F)F)CN5CCC65CC5)nc4c3F)c12` [Example 413, (R)-6′-(difluoromethylene)-7a′-(((8-fluoro-7-(7-fluoro-8-(fluoromethoxy-d2)naphthalen-1-yl)-4-((1S,7R,8S)-8-fluoro-2-azabicyclo[5.1.0]octan-2-yl)pyrido[4,3-d]pyrimidin-2-yl)oxy)methyl)hexahydrospiro [cyclopropane-1,1′-pyrrolizine]], with 50 to 500 nM; and `C#Cc1c(F)ccc2cc(N)cc(-c3ncc4c(N5CCOC[C@H]6[C@H](F)[C@H]65)nc(OC[C@]56C[C@@H](F)CN5CCC6=O)nc4c3F)c12` [Example 414, (6R,7aS)-7a-(((7-(3-amino-8-ethynyl-7-fluoronaphthalen-1-yl)-8-fluoro-4-((1S,7S,8S)-8-fluoro-5-oxa-2-azabicyclo[5.1.0]octan-2-yl)pyrido[4,3-d]pyrimidin-2-yl)oxy)methyl)-6-fluorohexahydro-1H-pyrrolizin-1-one], with under 50 nM. The same measure for `[2H]C([2H])(Oc1nc(N2CCOC[C@H]3[C@H](F)[C@H]32)c2cc(C(F)(F)F)c(-c3cccc4ccccc34)c(F)c2n1)[C@@]12CCCN1C[C@H](F)C2` [Example 415, (1S,7S,8S)-8-fluoro-2-(8-fluoro-2-(((2R,7aS)-2-fluorotetrahydro-1H-pyrrolizin-7a(5H)-yl)methoxy-d2)-7-(naphthalen-1-yl)-6-(trifluoromethyl)quinazolin-4-yl)-5-oxa-2-azabicyclo[5.1.0]octane]: 500 to 10000 nM. Regarding `[2H]C([2H])(Oc1nc(N2CCCC[C@H]3[C@H](F)[C@H]32)c2cnc(-c3cc(N)cc4ccc(Cl)c(C#C)c34)c(F)c2n1)[C@@]12CCCN1[C@H](C)[C@H](F)C2` [Example 416, 6-Chloro-5-ethynyl-4-(8-fluoro-2-(((2R,3R,7aS)-2-fluoro-3-methyltetrahydro-1H-pyrrolizin-7a(5H)-yl)methoxy-d2)-4-((1S,7R,8S)-8-fluoro-2-azabicyclo[5.1.0]octan-2-yl)pyrido[4,3-d]pyrimidin-7-yl)naphthalen-2-amine], the half-maximal inhibitory concentration (IC50) was under 50 nM. Take `[2H]C([2H])(Oc1nc(N2CCCC[C@H]3[C@H](F)[C@H]32)c2cnc(-c3cc(N)cc4ccc(C)c(C#C)c34)c(F)c2n1)[C@@]12CCCN1[C@H](C)[C@H](F)C2` [Example 417, 5-Ethynyl-4-(8-fluoro-2-(((2R,3R,7aS)-2-fluoro-3-methyltetrahydro-1H-pyrrolizin-7a(5H)-yl)methoxy-d2)-4-((1S,7R,8S)-8-fluoro-2-azabicyclo[5.1.0]octan-2-yl)pyrido[4,3-d]pyrimidin-7-yl)-6-methylnaphthalen-2-amine]: the IC50 was under 50 nM. The same measure for `[2H]C([2H])(Oc1nc(N2CCOC[C@H]3[C@H](F)[C@H]32)c2cc(C#N)c(-c3cc(N)cc4ccc(F)c(C#C)c34)c(C)c2n1)[C@@]12CCCN1C[C@H](F)C2` [Example 422, 7-(3-amino-8-ethynyl-7-fluoronaphthalen-1-yl)-4-((1S,7S,8S)-8-fluoro-5-oxa-2-azabicyclo[5.1.0]octan-2-yl)-2-(((2R,7aS)-2-fluorotetrahydro-1H-pyrrolizin-7a(5H)-yl)methoxy-d2)-8-methylquinazoline-6-carbonitrile]: under 50 nM. On to `C#Cc1c(F)ccc2cccc(-c3ncc4c(N5CCCC[C@H]6[C@H](F)[C@H]65)nc(OC[C@]56CC(=C)CN5CCC65CC5)nc4c3F)c12` [Example 423, (R)-7a′-(((7-(8-Ethynyl-7-fluoronaphthalen-1-yl)-8-fluoro-4-((1S,7R,8S)-8-fluoro-2-azabicyclo[5.1.0]octan-2-yl)pyrido[4,3-d]pyrimidin-2-yl)oxy)methyl)-6′-methylenehexahydrospiro[cyclopropane-1,1′-pyrrolizine]], for which the IC50 was under 50 nM. Take `C=C1CN2CCC3(CC3)[C@@]2(COc2nc(N3CCCC[C@H]4[C@H](F)[C@H]43)c3cnc(-c4cc(N)cc(Cl)c4C(F)(F)F)c(F)c3n2)C1` [Example 424, 3-chloro-5-(8-fluoro-4-((1S,7R,8S)-8-fluoro-2-azabicyclo[5.1.0]octan-2-yl)-2-(((R)-6′-methylenetetrahydrospiro[cyclopropane-1,1′-pyrrolizin]-7a′(5′H)-yl)methoxy)pyrido[4,3-d]pyrimidin-7-yl)-4-(trifluoromethyl)aniline]: the half-inhibitory concentration (IC50) is under 50 nM. `C#Cc1c(F)ccc2cc(N)cc(-c3ncc4c(N5CCOC[C@H]6[C@H](F)[C@H]65)nc(OC[C@@]56CCCN5CC(=C)C6)nc4c3C)c12` [Example 425, 5-ethynyl-6-fluoro-4-(4-((1S,7S,8S)-8-fluoro-5-oxa-2-azabicyclo[5.1.0]octan-2-yl)-8-methyl-2-(((S)-2-methylenetetrahydro-1H-pyrrolizin-7a(5H)-yl)methoxy)pyrido[4,3-d]pyrimidin-7-yl)naphthalen-2-amine] came in with an IC50 of under 50 nM.

As to `C#Cc1c(F)ccc2cc(N)cc(-c3ncc4c(N5CCOC[C@H]6[C@H](F)[C@H]65)nc(OC[C@@]56CCCN5C/C(=C/F)C6)nc4c3C)c12` [Example 426, 5-ethynyl-6-fluoro-4-(4-((1S,7S,8S)-8-fluoro-5-oxa-2-azabicyclo[5.1.0]octan-2-yl)-2-(((S,E)-2-(fluoromethylene)tetrahydro-1H-pyrrolizin-7a(5H)-yl)methoxy)-8-methylpyrido[4,3-d]pyrimidin-7-yl)naphthalen-2-amine], the IC50 is under 50 nM.

For `C#Cc1c(F)ccc2cc(N)cc(-c3ncc4c(N5CCOC[C@H]6[C@H](F)[C@H]65)nc(OC[C@@]56CCCN5C/C(=C\F)C6)nc4c3C)c12` [Example 427, 5-ethynyl-6-fluoro-4-(4-((1S,7S,8S)-8-fluoro-5-oxa-2-azabicyclo[5.1.0]octan-2-yl)-2-(((S,Z)-2-(fluoromethylene)tetrahydro-1H-pyrrolizin-7a(5H)-yl)methoxy)-8-methylpyrido[4,3-d]pyrimidin-7-yl)naphthalen-2-amine], the half-inhibitory concentration (IC50) was under 50 nM. The same measure for `C#Cc1c(F)ccc2cc(N)cc(-c3ncc4c(N5CCOC[C@H]6[C@H](F)[C@H]65)nc(OC[C@@]56CCCN5CC(=C(F)F)C6)nc4c3C)c12` [Example 428, 4-(2-(((S)-2-(difluoromethylene)tetrahydro-1H-pyrrolizin-7a(5H)-yl)methoxy)-4-((1S,7S,8S)-8-fluoro-5-oxa-2-azabicyclo[5.1.0]octan-2-yl)-8-methylpyrido[4,3-d]pyrimidin-7-yl)-5-ethynyl-6-fluoronaphthalen-2-amine]: under 50 nM.

Molecule `C#Cc1c(F)ccc2cc(N)cc(-c3ncc4c(N5CCOC[C@H]6[C@H](F)[C@H]65)nc(OC[C@]56CC(=C)CN5CCC65CC5)nc4c3C)c12` [Example 429, 5-ethynyl-6-fluoro-4-(4-((1S,7S,8S)-8-fluoro-5-oxa-2-azabicyclo[5.1.0]octan-2-yl)-8-methyl-2-(((R)-6′-methylenetetrahydrospiro[cyclopropane-1,1′-pyrrolizin]-7a′(5′H)-yl)methoxy)pyrido[4,3-d]pyrimidin-7-yl)naphthalen-2-amine] came in with an IC50 of under 50 nM.
